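Cells were grown in 96-well plates and exposed to each compound for 48 hours at five concentrations; endpoints were interpolated linearly between bracketing concentrations, or set to the highest concentration if not reached. GI50 = concentration required for 50% inhibition of growth.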 Active and inactive are the calls of the source. No stated cut-off is given here; in the data, active = GI50 up to about 1.1 µM and inactive = higher.
What was measured:
Assay in all cases: NCI tumour cell line growth inhibition, 48 h
OVCAR-3 = test system: OVCAR-3
NCI-H23 = test system: NCI-H23
HL-60 = test system: HL-60
SNB-19 = test system: SNB-19
SR = test system: SR
NCI-H226 = test system: NCI-H226
SNB-78 = test system: SNB-78
M14 = test system: M14
SF-539 = test system: SF-539
UACC-257 = test system: UACC-257
MOLT-4 = test system: MOLT-4
LOX IMVI = test system: LOX IMVI
UO-31 = test system: UO-31
ACHN = test system: ACHN
HCC 2998 = test system: HCC 2998
K562 = test system: K562
SK-OV-3 = test system: SK-OV-3
HOP-62 = test system: HOP-62
HCT-116 = test system: HCT-116
OVCAR-5 = test system: OVCAR-5
A549 = test system: A549
HOP-92 = test system: HOP-92
NCI-H460 = test system: NCI-H460
HCT-15 = test system: HCT-15
KM-20L2 = test system: KM-20L2
RXF 631 = test system: RXF 631
DMS-273 = test system: DMS-273
SNB-75 = test system: SNB-75
IGROV-1 = test system: IGROV-1
SW-620 = test system: SW-620
COLO 205 = test system: COLO 205
OVCAR-4 = test system: OVCAR-4
CAKI-1 = test system: CAKI-1
Malme-3M = test system: Malme-3M
786-0 = test system: 786-0
TK-10 = test system: TK-10
DLD-1 = test system: DLD-1
XF498 = test system: XF498
HT-29 = test system: HT-29
SF-268 = test system: SF-268
SF-295 = test system: SF-295
RPMI-8226 = test system: RPMI-8226
SK-MEL-28 = test system: SK-MEL-28
OVCAR-8 = test system: OVCAR-8
UACC-62 = test system: UACC-62
LXFL 529 = test system: LXFL 529
SN12C = test system: SN12C
NCI-H522 = test system: NCI-H522
SK-MEL-2 = test system: SK-MEL-2
KM12 = test system: KM12
SK-MEL-5 = test system: SK-MEL-5
U-251 = test system: U-251
DMS-114 = test system: DMS-114
A498 = test system: A498
EKVX = test system: EKVX
RXF 393 = test system: RXF 393
CCRF-CEM = test system: CCRF-CEM
M19-MEL = test system: M19-MEL

With `O=C(CCC(=O)Nc1cccc(Cl)c1)CC(=O)c1ccc(Cl)cc1` the GI50 (OVCAR-3) was > 100 µM (inactive), the GI50 (NCI-H23) was > 100 µM (inactive) and the GI50 (HL-60) was > 100 µM (inactive). For the same compound, the GI50 (SNB-19) was > 100 µM (inactive), the GI50 (SR) was > 100 µM (inactive) and the GI50 (NCI-H226) was > 100 µM (inactive). The GI50 (SNB-78) was > 100 µM (inactive), the GI50 (M14) was > 100 µM (inactive) and the GI50 (SF-539) was > 100 µM (inactive). For the same compound, the GI50 (UACC-257) was > 100 µM (inactive), the GI50 (MOLT-4) was > 100 µM (inactive) and the GI50 (LOX IMVI) was > 100 µM (inactive). The GI50 (UO-31) was > 100 µM (inactive), the GI50 (ACHN) was > 100 µM (inactive) and the GI50 (HCC 2998) was > 100 µM (inactive). The GI50 (K562) was > 100 µM (inactive), the GI50 (SK-OV-3) was > 100 µM (inactive) and the GI50 (HOP-62) was > 100 µM (inactive). The GI50 (HCT-116) was > 100 µM (inactive), the GI50 (OVCAR-5) was > 100 µM (inactive) and the GI50 (A549) was > 100 µM (inactive). The GI50 (HOP-92) was > 100 µM (inactive), the GI50 (NCI-H460) was > 100 µM (inactive) and the GI50 (HCT-15) was greater than 100 µM. The GI50 (KM-20L2) was > 100 µM (inactive), the GI50 (RXF 631) was > 100 µM (inactive) and the GI50 (DMS-273) was > 100 µM (inactive). The GI50 (SNB-75) was > 100 µM (inactive), the GI50 (IGROV-1) was > 100 µM (inactive) and the GI50 (SW-620) was > 100 µM (inactive). The GI50 (COLO 205) was > 100 µM (inactive), the GI50 (OVCAR-4) was > 100 µM (inactive) and the GI50 (CAKI-1) was > 100 µM (inactive). The GI50 (Malme-3M) was > 100 µM (inactive), the GI50 (786-0) was > 100 µM (inactive) and the GI50 (TK-10) was > 100 µM (inactive). For the same compound, the GI50 (DLD-1) was > 10 µM (inactive), the GI50 (XF498) was > 100 µM (inactive) and the GI50 (HT-29) was > 100 µM (inactive). For the same compound, the GI50 (SF-268) was > 100 µM (inactive), the GI50 (SF-295) was > 100 µM (inactive) and the GI50 (RPMI-8226) was > 100 µM (inactive). For the same compound, the GI50 (SK-MEL-28) was > 100 µM (inactive), the GI50 (OVCAR-8) was > 100 µM (inactive) and the GI50 (UACC-62) was > 100 µM (inactive). For the same compound, the GI50 (LXFL 529) was > 100 µM (inactive), the GI50 (SN12C) was > 100 µM (inactive) and the GI50 (NCI-H522) was > 100 µM (inactive). The GI50 (SK-MEL-2) was > 100 µM (inactive) and the GI50 (KM12) was > 100 µM (inactive).

With `O=S(=O)(c1ccccc1)C1CN2OC1(S(=O)(=O)c1ccccc1)CC2c1ccc(Br)cc1` (centres undefined) the GI50 (OVCAR-3) was 84.7 µM (inactive), the GI50 (SK-MEL-5) was 90.6 µM (inactive) and the GI50 (NCI-H23) was > 100 µM (inactive). The GI50 (HL-60) was > 100 µM (inactive), the GI50 (SNB-19) was 46.8 µM (inactive) and the GI50 (NCI-H226) was > 100 µM (inactive). For the same compound, the GI50 (M14) was > 100 µM (inactive), the GI50 (SF-539) was 17.7 µM (inactive) and the GI50 (UACC-257) was 68.4 µM (inactive). The GI50 (MOLT-4) was > 100 µM (inactive), the GI50 (LOX IMVI) was 92 µM (inactive) and the GI50 (UO-31) was 37.9 µM (inactive). The GI50 (ACHN) was 45.4 µM (inactive), the GI50 (HCC 2998) was > 100 µM (inactive) and the GI50 (K562) was > 100 µM (inactive). For the same compound, the GI50 (SK-OV-3) was > 100 µM (inactive), the GI50 (HOP-62) was 34.3 µM (inactive) and the GI50 (U-251) was 54.2 µM (inactive). The GI50 (HCT-116) was > 100 µM (inactive), the GI50 (DMS-114) was > 100 µM (inactive) and the GI50 (OVCAR-5) was > 100 µM (inactive). The GI50 (A549) was > 100 µM (inactive), the GI50 (HOP-92) was 66.2 µM (inactive) and the GI50 (NCI-H460) was > 100 µM (inactive). For the same compound, the GI50 (HCT-15) was greater than 100 µM, the GI50 (KM-20L2) was > 100 µM (inactive) and the GI50 (A498) was 96.4 µM (inactive). For the same compound, the GI50 (RXF 631) was 26.5 µM (inactive), the GI50 (EKVX) was > 100 µM (inactive) and the GI50 (DMS-273) was > 100 µM (inactive). The GI50 (SNB-75) was 5.21 µM (inactive), the GI50 (IGROV-1) was > 100 µM (inactive) and the GI50 (SW-620) was > 100 µM (inactive). The GI50 (OVCAR-4) was 15.4 µM (inactive), the GI50 (CAKI-1) was 60 µM (inactive) and the GI50 (Malme-3M) was > 100 µM (inactive). For the same compound, the GI50 (786-0) was 38.1 µM (inactive), the GI50 (RXF 393) was 13.2 µM (inactive) and the GI50 (TK-10) was 59 µM (inactive). The GI50 (DLD-1) was > 100 µM (inactive), the GI50 (XF498) was 18.6 µM (inactive) and the GI50 (CCRF-CEM) was > 100 µM (inactive). For the same compound, the GI50 (HT-29) was > 100 µM (inactive), the GI50 (SF-268) was 14.9 µM (inactive) and the GI50 (M19-MEL) was > 100 µM (inactive). For the same compound, the GI50 (SF-295) was 31.8 µM (inactive), the GI50 (RPMI-8226) was > 100 µM (inactive) and the GI50 (SK-MEL-28) was > 100 µM (inactive). The GI50 (OVCAR-8) was > 100 µM (inactive), the GI50 (UACC-62) was > 100 µM (inactive) and the GI50 (SN12C) was > 100 µM (inactive). For the same compound, the GI50 (NCI-H522) was 34 µM (inactive), the GI50 (SK-MEL-2) was > 100 µM (inactive) and the GI50 (KM12) was > 100 µM (inactive).

— ChEMBL document CHEMBL1201862, “PubChem BioAssay data set” (2004)
